According to patent US5126348A, “Bioavailability enhancers” (priority 1989, dated 1992):
Read-outs that look alike come from different tables or passages of the source.

Assays:
[1] = design: species or system beagle dog; details: dog, in vivo
[2] = in vivo
Source text: Venous blood samples were taken at time intervals listed below. […] After administration to the human volunteer, blood samples were taken at the same time intervals as the previous test. Relative salicylic acid concentrations of the samples were compared using fluorescence units as determined by spectrofluorometer.

[3] = Theophylline blood levels as a function of time after oral administration, with and without nicotinic acid (Example 1)
Source text: FIG. 1 is a graph showing theophylline blood levels as a function of time after administration, comparing theophylline in combination with nicotinic acid with theophylline alone.

[4] = cited from earlier work
[5] = cited from earlier work; remark: listed apart in the source
[6] = cited from earlier work; remark: listed apart in the source

Which results are given for `CC(=O)Oc1ccccc1C(=O)O` [ASA, acetylsalicylic acid]?
absorption induced by reserpine [1]: near-complete absorption; elimination kinetics, reserpine-treated vs. non-pretreated dogs [1]: similar; plasma concentration of SA, reserpine-treated vs. non-pretreated dogs [1]: considerably higher at each time interval; time of peak plasma concentrations of SA, reserpine-treated vs. non-pretreated dogs [1]: at the same time in both tests; % of maximum concentration ([1]; 10 min): 24%; plasma SA concentration ([1]; 10 min): 19.9 µg/mL; % of maximum concentration ([1]; 20 min): 47%; % of maximum concentration ([1]; 30 min): 70%; plasma SA concentration ([1]; 60 min): 72.8 µg/mL; % of maximum concentration ([1]; 120 min): 100%; plasma SA concentration (max) ([1]; 120 min): 81.4 µg/mL; Total area under the plasma level curve, increase over non-pretreated dogs ([1]; 480 min): 13.2%; total AUC, increase ([1]; iv): 14.5%; % of Dose of ASA Absorbed (using IV ASA as 100% absorption) ([1]; po): 87.5%; bioavailability of aspirin with nicotinic acid [2]: enhanced

Which results are given for `Cn1c(=O)c2[nH]cnc2n(C)c1=O` [Theophylline, theophylline]?
concentration at 29 min ([3]; human, in vivo, po, 300 mg): < 500 ng/mL; concentration at 1.05 h ([3]; human, in vivo, po, 300 mg): 2200 ng/mL; concentration at 1.55 h ([3]; human, in vivo, po, 300 mg): 4400 ng/mL; concentration at 121 min ([3]; human, in vivo, po, 300 mg): 5300 ng/mL; concentration at 2.5 h ([3]; human, in vivo, po, 300 mg): 7000 ng/mL; concentration at 184 min ([3]; human, in vivo, po, 300 mg): 7200 ng/mL; Blood levels of theophylline ([3]; time after administration 0, oral, 300 mg theophylline, with or without 100 mg niacin): < 50 ng/mL

With `NC(=O)c1cccnc1` [niacinamide] as the compound, how does the vasodilation or flushing ([4]; niacinamide form) read?
The vasodilation or flushing was “does not cause the vasodilation or flushing”.

Which toxicity ([4]; even at high dosages) does the source give for `O=C(O)c1cccnc1` [nicotinic acid] here?
Its toxicity is “relatively harmless”.

And the “low density lipids and cholesterol in the blood” value ([4]; high doses (3-6 g/day))?
The value was “lowers”.

And the peripheral vascular resistance ([4]; high doses (3-6 g/day))?
Its peripheral vascular resistance is “decreases”.

And the “stroke volume of the heart” value ([4]; high doses (3-6 g/day))?
Its value is “increases”.

What about the tolerated dosage ([4]; human, in vivo) of the same compound?
The tolerated dosage was “up to 6 grams per day”.

What about the “effects on blood pressure” value ([4]; in vivo) of the same compound?
Its value is “only minor effects”.

What about the “heart rate and cardiac output” value ([4]; in vivo) of the same compound?
Its value is “increases”.

And the peripheral blood flow ([4]; in vivo)?
The peripheral blood flow was “increases”.

And the “flushing effect with acetylsalicylic acid” value ([4]; with acetylsalicylic acid)?
The value was “reduced”.

What about the “absorption with food ingestion” value [5] of the same compound?
The value was “not affected”.

For `CC(C)NCC(O)COc1cccc2ccccc12` (stereo not shown) [propranolol], which bioavailability with hydralazine [6] is on record?
Its bioavailability with hydralazine is “increased bioavailability”.
